How the values were obtained:
[1] = Stability of synthetic M15 observed during purification; type: physicochemical
Method: Anomeric bromination of 1 with 33% HBr in acetic acid gave bromide 2 in 70% crystallized yield. Treatment of phenol 3 with bromide 2 in the presence of Ag2CO3 in acetonitrile at 60° C. produced compound 4 in 75% yield after reverse phase chromatography. Deprotection of 4 with triethylamine in methanol/water gave clean conversion to glucuronic acid 5 (M15). The reaction was stopped at 90% conversion since the amount of 3 present in the reaction started to increase. The mixture was purified by reverse phase chromatography with 0.1% TFA in the chromatography solvent. The free acid was isolated after lyophilization, however it contained a significant amount of 3. […] Another batch was purified using the same method as before but the TFA was neutralized with triethylamine before lyophilization. The compound was stable to the conditions but contained a large amount of triethylammonium trifluoroacetate. Not all salt was removed. The material was purified by reverse phase chromatography but without TFA in the solvent. After lyophilization the triethylamine salt of M15 (5) was isolated in high purity and 24% overall yield.

[2] = Precipitation of test compound in transporter assay buffer; type: physicochemical; details: 300 μM, MRP2 assay buffer
[3] = tested on: cryopreserved hepatocytes; test: Metabolites of [14C]BIC in cryopreserved hepatocytes, rat; type: in vitro ADME; details: Wister-Han Rat hepatocytes, 4 hours, [14C]BIC 20 μM
Excerpt: (§1) Metabolic pathways included hydroxylation (3 variants), N-dealkylation, and direct glucuronidation. All human metabolites were also observed in nonclinical species. Using the hepatocyte system where the full range of hepatic metabolic enzymes are represented, it appeared that the metabolism of BIC was extensive in monkey and dog but lower in rat and human.

[4] = tested on: cryopreserved hepatocytes; test: Metabolites of [14C]BIC in cryopreserved hepatocytes, monkey; type: in vitro ADME; details: Cynomolgus Monkey hepatocytes, 4 hours, [14C]BIC 20 μM
Excerpt: as §1

[5] = tested on: cryopreserved hepatocytes; test: Metabolites of [14C]BIC in cryopreserved hepatocytes, human; type: in vitro ADME; details: 4 hours, [14C]BIC 20 μM
Excerpt: as §1

[6] = In vivo BIC metabolism, plasma profile after oral [14C]BIC, mouse; details: transgenic mice, 0 to 48 hours post dose, ND = not detected
Excerpt: Metabolic pathways included hydroxylation, oxidative defluorination, direct glucuronidation, and oxidation followed by phase II conjugation. In the monkey, BIC was metabolized through the oxidative pathways to a greater extent compared to rat and human.

In the case of `O=C(NCc1c(F)cc(F)cc1F)c1cn2c(c(O[C@@H]3O[C@H](C(=O)O)[C@@H](O)[C@H](O)[C@H]3O)c1=O)C(=O)N1[C@H]3CC[C@H](C3)O[C@@H]1C2` [Metabolite M15], the “Stability of the free acid” value ([1]; free acid, neutral or acidic conditions) was “unstable in either neutral or acidic conditions” and the “Stability of the triethylamine salt” value ([1]; triethylamine salt) was “appeared to be stable”.
With `O=C(NCc1c(F)cc(F)c(OS(=O)(=O)O)c1F)c1cn2c(c(O)c1=O)C(=O)N1C(C2)O[C@@H]2CC[C@H]1C2` (stereo partly shown) [Metabolite M20] the “Precipitation in assay buffer” value [2] was “Precipitation was observed”.
With `O=C(NCc1c(F)cc(F)cc1F)c1cn2c(c(O)c1=O)C(=O)N1[C@H]3CC[C@H](C3)O[C@@H]1C2` [BIC, bictegravir, reference compound] the “Fraction of Radiochromatogram (%)” value [3] was 91.5%, the “Fraction of Radiochromatogram (%)” value [4] was 52.4% and the “Fraction of Radiochromatogram (%)” value [5] was 93.9%. The “% of Total Radioactivity in AUC Pooled Plasma” value [6] was 95.5%.
